# Source: patent US20250161273A1, “PHARMACEUTICAL COMPOSITION COMPRISING DIPHENYLDIAZOLE DERIVATIVES AND METHODS OF USE” (MODAG GMBH, priority 2022, published 2025)
# Key:
# oligomer accumulation = settings: range of different mouse models; cited from earlier work
# [1] = phase 1 first-in-human trial, safety and tolerability; type: in vivo
# Method: Anle138b was studied in a single-centre, double-blind, randomised, placebo-controlled single ascending dose (SAD) and multiple ascending dose (MAD) study in healthy subjects. Eligible participants were randomly assigned (1:1 for sentinel subjects and 1:5 for main group) to placebo or anle138b (dose ranging from 50 mg to 300 mg per day), respectively. In addition, the effect of food on the pharmacokinetics (PK) of anle138b in healthy subjects was examined at doses of 150 mg per day (FES, food effect study). Participants were randomized to treatment sequence (fed→fasted) or (fasted→fed). Treatment for the SAD, MAD and FES arms of the study was administered orally in hard gelatin capsules containing either 10 mg or 30 mg of anle138b with excipient (i.e., lauroyl polyoxyl-32 glycerides) or excipient only. The primary endpoints were safety and tolerability, the secondary endpoint was pharmacokinetics. Data from all randomized individuals were evaluated. [Clinicaltrials.gov-identifier: NCT04208152. EudraCT-number: 2019-004218-33] […]
# In SAD, subjects received a single dose of anle138b or placebo after fasting from all food and drink (except water) for a minimum of 8 h prior to dosing. […] The following data were analyzed: Adverse events, vital signs, safety laboratory, ECG, physical examinations, plasma concentrations of anle138b with interim PK parameter estimations (Tmax, Cmax, AUC0-24, AUC0-tau, AUC0-last and T½, where applicable). […]
# Outcome measures: The primary objective was to assess the safety and tolerability of single (SAD) and multiple (MAD) ascending doses of anle138b to healthy subjects in the fasted state and to assess the safety and tolerability of single doses of anle138b in both the fasted and fed state (FES). To this end, adverse events (AEs), clinical laboratory tests, vital signs, electrocardiograms (ECGs), QT interval corrected for heart rate using Fridericia's formula (QTcF), and physical examination findings were recorded. […]
smiles,measurement,setting,value
"Brc1cccc(-c2cc(-c3ccc4c(c3)OCO4)n[nH]2)c1 [anle138b, 3-(1,3-benzodioxol-5-yl)-5-(3-bromophenyl)-1H-pyrazole]",effect in mouse models in vivo (in words),oligomer accumulation,"strongly inhibited oligomer accumulation, neuronal degeneration, and disease progression"
same,safety and tolerability (in words),"[1]; food effect study, 150 mg, fasted and fed conditions",safe and well tolerated
same,serious adverse events (in words),"[1]; healthy subjects, any part of the study",no serious adverse events
same,safety and tolerability (in words),"[1]; healthy subjects, up to 300 mg daily for up to 7 consecutive days",safe and well tolerated at all dose levels
